Here are results for four molecules from US4478763A, “Process for preparing alpha-fluorinated alkanediphosphonates” (Univ. of Southern California, priority 1982, dated 1984).

“Also recorded” adds a separate entry of the source. Where two headings read alike, the source gives them in different places.

The conditions of data set [1]: cited from earlier work.
Data set [2] is described as follows: Acidity comparison among methanediphosphonic acids. As to conditions: for acidity compared with other methanediphosphonic acids (in words): qualitative comparison. The data set is classed as physicochemical. The protocol:
(§1) The effect of fluorine substitution on the acidity of methanediphosphonic acid is of interest. Using the empirical equations developed by R. G. Grabenstetter et al. J. Phys. Chem. 71, 4194 (1967), estimated pK° values for mono and difluoro methanediphosphonic acid were calculated and compared with experimental pK° data for the parent acid. It should be noted that the cited work set forth two alternative Taft equations for pK°4 on giving an optimal fit with bulkier substitution (e.g., CH3) and one to fit data for less sterically hindering substituents (e.g., H).

A further data set deals with bone resorption. Briefly: Inhibition of bone resorption. The following applies: compared with known drugs; no test data given.
Data set [3] is described as follows: Estimation of pK° values of mono and difluoro methanediphosphonic acid from 31P chemical shift data. The data set is classed as physicochemical. As to conditions: calculated from 31P chemical shift data. How it is done:
as §1

Setting [4] is: dichloro methanediphosphonic acid.
Setting [5] is: experimental pK° data, parent acid.

Turning to `O=P(O)(O)C(Cl)(Cl)P(=O)(O)O` [dichloro methanediphosphonic acid], in data set [1] (setting [4]), the “pK°3” value is on record as 6.1 and the “pK° 4” value is recorded as 9.8. For the same molecule, in data set [2], the “acidity compared with other methanediphosphonic acids (in words)” value is “weaker than the difluoro substituted acid”.

With `O=P(O)(O)CP(=O)(O)O` [MDPA, methanediphosphonic acid], in data set [1] (setting [5]), the “pK° 2” value is given as 3.1, the “pK°3” value is on record as 7.4 and the “pK° 4” value is 11.0.

As to `O=P(O)(O)C(F)(F)P(=O)(O)O` [difluoro MDPA, Difluoro Methanediphosphonic Acid], the “acidity of the fourth proton relative to unfluorinated parent acid” value in data set [2] (more acidic than the unfluorinated parent acid, calculated) is 100 fold. Besides, the “acidity compared with other methanediphosphonic acids (in words)” value in data set [2] is “strongest of the halomethanediphosphonic acids”. The “inhibition of bone resorption” value in the data set on bone resorption is “inhibits bone resorption at least as effectively as known drugs”. Further, the pKa in data set [3] (read-out: pK° 2) was 2.57; in data set [3] (read-out: pK° 3) it was 6.08; in data set [3] (read-out: pK° 4), 9.07.

With `O=P(O)(O)C(F)P(=O)(O)O` [monofluoro MDPA, Fluoro Methanediphosphonic Acid], in data set [2] (listed as monofluoro acid), the “acidity compared with other methanediphosphonic acids (in words)” value is on record as “one order of magnitude below that of the parent acid; also recorded: comparable to that of dichloro methanediphosphonic acid”. The “pK° 4” value in data set [3] (listed as monofluoro acid) was “approximately 10.1”. For the same molecule, the pKa in data set [3] (read-out: pK° 2) was 2.78; in data set [3] (read-out: pK° 3) it was 6.62; in data set [3] (read-out: pK° 4), 10.1.
